# Patent US6994671B2, “Apparatus and method for screening, olfactory mucosa stimulating compound found by the screening method, and therapeutic apparatus and electrode section for measurement” (Matsushita Electric Industrial Co., Ltd., priority 2000, dated 2006)
# How the values were obtained:
# olfactory mucosa = assay: Electrical signal in the olfactory bulb on spraying the compound toward the olfactory mucosa, measured with implanted micro electrodes; type: in vivo; settings: rat, sprayed with air for 5 minutes; FIG. 5 (a) vs (b)
# Source text: A two-week-old rat was used as a test animal. The measuring electrode portion 10 shown in FIG. 4 was implanted into the rat by a surgical operation. In the measuring electrode portion 10, the length of the micro electrode 16a was 100 μm, and the interval between adjacent micro electrodes 16a in each electrode column 17 was 500 μm. Platinum was used as a conductive material for the needle-shaped conductive lead 16. Polyimide was used as the insulative film. […] In order to attach the measuring electrode portion 10 to the rat, Nembutal (barbiturate) was injected into the abdominal cavity of the rat in a quantity equal to […], so as to anesthetize the rat, and the anesthetized rat was fixed in the prone position. […] The response induced in the olfactory bulb of the rat was recorded in the form of an electrical signal from each micro electrode 16a of the measuring electrode portion 10. […] At the same time, the blood pressure and the heart rate of the rat were measured when cineole was sprayed on the rat. […] After the olfactory bulb of the rat had stabilized, cineole was sprayed into the test animal fixing device 32 together with air at an oxygen concentration 5% higher than normal air, and a response of the olfactory bulb of the rat obtained at that time was recorded in the form of an electrical signal from each micro electrode 16a of the measuring electrode portion 10.
# rat = assay: Blood pressure and heart rate of the rat while the compound is sprayed; type: in vivo
# Source text: The test animal fixing device 32 has a means for measuring physiological responses induced in an organism, such as the blood pressure, the heart rate, etc., of the test animal fixed therein. Measurement results obtained by the measuring means are supplied to the processing apparatus 36. Further, measurement results of the blood pressure, the heart rate, and the like, of the rat fixed in the test animal fixing device 32, which are obtained when the air containing the olfactory mucosa stimulating compound is sprayed from the atomizing nozzle 33, are supplied to the processing apparatus 36. The processing apparatus 36 determines the efficacy of the olfactory mucosa stimulating compound sprayed on the rat, based on the analyzed electrical signal pattern in the olfactory bulb and the measurement results of the blood pressure, the heart rate, and the like, of the rat. For example, if a decrease in the blood pressure of the rat is detected as a result of a stimulation of the olfactory mucosa by an olfactory mucosa stimulating compound, it is determined that the olfactory mucosa stimulating compound suppresses brain cells so as to induce a physiological response that lowers the blood pressure. Accordingly, the olfactory mucosa stimulating compound is identified as a compound effective in lowering the blood pressure. In this case, the electrical signal pattern obtained by the measuring electrode portion 10 is stored as data in the processing apparatus 36. After such an implantation operation of the measuring electrode portion 10, the rat was reared for three weeks under an environment which was cleaned with activated carbon so as to remove substances that produce aromas. Then, three weeks after the surgical operation, the rat was fixed in the test animal fixing device 32 of the screening apparatus 1 shown in FIG. 1. The terminal line 38, which extended from the body of the rat, was connected to the signal amplitude stimulating apparatus 34 outside the test animal fixing device 32. […] The response induced in the olfactory bulb of the rat was recorded in the form of an electrical signal from each micro electrode 16a of the measuring electrode portion 10. […] At the same time, the blood pressure and the heart rate of the rat were measured when cineole was sprayed on the rat. […] After the olfactory bulb of the rat had stabilized, cineole was sprayed into the test animal fixing device 32 together with air at an oxygen concentration 5% higher than normal air, and a response of the olfactory bulb of the rat obtained at that time was recorded in the form of an electrical signal from each micro electrode 16a of the measuring electrode portion 10.
# [1] = cineole sprayed with air, FIG. 6
# [2] = result stated for normal oxygen concentration
smiles,measurement,setting,value
CC12CCC(CC1)C(C)(C)O2 [cineole],"stimulation of the olfactory mucosa (electrical signals of the olfactory bulb, 16 micro electrodes)",olfactory mucosa,stimulated the olfactory mucosa
same,blood pressure,rat; [1],increases in the blood pressure
same,heart rate,rat; [1],increases
same,"blood pressure, air at normal oxygen concentration versus air at oxygen concentration 5% higher than normal air",rat; [2],increased more greatly
same,"heart rate, air at normal oxygen concentration versus air at oxygen concentration 5% higher than normal air",rat; [2],increased more greatly
